Two substances from US20020055488A1, “Prevention and treatment of streptococcal and staphylococcal infection” (priority 2000, published 2002) can be followed below.

Assay [1] has as its system Group A streptococcus (GAS). In words: GAS attachment to murine keratinocyte cell line PAM2.12 with exogenous hyaluronic acid. In kind it is cell-based, Streptococcus pyogenes. As to conditions: for inhibition of GAS attachment to PAM2.12 keratinocytes: polysaccharide added together with GAS, 45 minutes incubation. The procedure: For bacterial adherence assays, keratinocytes were seeded at 10^5 cells per well in collagen-coated tissue culture wells (Nalge Nunc International, Naperville, Ill.), incubated for 3 days at 34° C. in 8% CO2, washed, and overlaid with medium containing 10^6 CFU of GAS per well. After incubation for 1 hour at 34° C. in 8% CO2 the keratinocyte monolayers were washed twice to remove nonadherent bacteria, then the number of cell-associated bacteria was determined by quantitative culture after releasing the keratinocytes with trypsin and lysing them in sterile water, experiments testing the effects of exogenous hyaluronic acid on GAS adherence were performed using the mouse keratinocyte cell line, PAM 2.12 (Song, I. S. 2000, Exp. Dermatol. 9:42-52). Cells were seeded in collagen-coated tissue culture wells at 10^5 cells per well, cultured for 3 days at 37° C. in 5% CO2, then inoculated with 10^6 CFU of GAS per well in medium containing exogenous hyaluronic acid (from rooster comb, Sigma Chemicals, St. Louis, Mo.), no inhibitor, or a control polysaccharide, alginic acid, a high-molecular-weight polymer of mannuronic acid and guluronic acid (Protonal Durvillea Alginate, Pronova. Biopolymer, Inc., Portsmouth, N.H.). Cells were incubated for 45 minutes at 37° C. in 5% CO2, then processed for enumeration of adherent bacteria as described above. In experiments to test whether exogenous hyaluronic acid could promote dissociation of GAS attached to keratinocytes, GAS were allowed to attach to keratinocytes in the absence of inhibitor; […], no inhibitor, or alginic acid. After 45 minutes of incubation, the number of adherent bacteria was enumerated as described above.
To investigate the specificity of the interaction between the GAS capsule and CD44 on epithelial cells, the ability of exogenous hyaluronic acid to compete with GAS for binding to murine keratinocytes was examined. Addition of exogenous hyaluronic acid inhibited GAS attachment to the murine keratinocyte cell line PAM2.12 by >95% (P<0.03, FIG. 5). Alginic acid, another high molecular weight acidic polysaccharide, had no effect, supporting the hypothesis that adherence depends on a specific interaction between the GAS hyaluronic acid capsule and CD44.

The subject of assay [2] is Group A streptococcus (GAS). The assay can be described thus: GAS pharyngeal colonization in mice after intranasal pretreatment with hyaluronic acid. Conditions: intranasal 20 μl of 1 mg/ml, 5 hours prior to GAS inoculation, compared to PBS or alginic acid pretreated, 3 days. Type of assay: in vivo, Streptococcus pyogenes. The procedure:
For pharyngeal colonization experiments, 4 to 6 week-old female mice were anesthetized by inhalation of methoxyflurane, then inoculated intranasally with approximately 5×10^6 CFU of GAS in 20 μl phosphate-buffered saline, pH 7.4. Throat swabs were collected from anesthetized mice daily and were plated on Todd-Hewitt-blood agar containing streptomycin 500 μg/ml to inhibit growth of normal flora. For some experiments, the bacterial inoculum was suspended in phosphate-buffered saline containing 50μg of mAb, either KM81, a rat anti-mouse CD44 mAb (Miyake, K. 1990, J. Exp. Med. 171:477-488), or 4H1, an isotype-matched control monoclonal antibody directed to Pseudomonas aeruginosa lipopolysaccharide (donated by Michael Preston, Brigham and Women's Hospital, Boston, Mass.). Both antibodies were purified by protein G affinity chromatography (GammaBind Plus Sepharose, Amersham Pharmacia Biotech, Piscataway, N.J.) prior to use.
Differences in attachment of GAS to keratinocytes were evaluated Using the Mann Whitney U test (Instat version 1.12, GraphPad Software, Inc. San Diego, Calif.). Repeated measures logistic regression was used to test for the effect of anti-CD44 mAb or erogenous hyaluronic acid treatment on the proportion of mice with positive throat cultures over three days of observation (Zeger, S. L. et al. 1986, Biometrics. 42:121-130). […]

For assay [3], the system named is Group A Streptococcus (GAS, strain 950771). The assay can be described thus: Bacterial binding to human keratinocyte monolayers after pre-incubation, GAS. In kind it is cell-based, Streptococcus pyogenes. As to conditions: 10 bacteria per keratinocyte, 1 hour, alginate control. The procedure:
(§1) Keratinocyte monolayers were pre-incubated with alginate (AL, solid bars) or hyaluronic cid (HA, hatched bars) prior to surface inoculation with either Group A Streptococcus (GAS, strain 950771), Group B Streptococcus (GBS, strain 515), Streptococcus pneumoniae (S. pneumo, type 6), or Staphylococcus aureus (S. aureus, type 8) at a multiplicity of infection of 10 bacteria per keratinocyte for 1 hour.

The subject of assay [4] is Group B Streptococcus (GBS, strain 515). The assay can be described thus: Bacterial binding to human keratinocyte monolayers after pre-incubation, GBS. Type of assay: cell-based. Conditions: 10 bacteria per keratinocyte, 1 hour, alginate control. The procedure:
as §1

For assay [5], the system named is Streptococcus pneumoniae (S. pneumo, type 6). In words: Bacterial binding to human keratinocyte monolayers after pre-incubation, S. pneumoniae. In kind it is cell-based. Conditions: 10 bacteria per keratinocyte, 1 hour, alginate control. The procedure: as §1
The subject of assay [6] is Staphylococcus aureus (S. aureus, type 8). The assay can be described thus: Bacterial binding to human keratinocyte monolayers after pre-incubation, S. aureus. In kind it is cell-based. As to conditions: 10 bacteria per keratinocyte, 1 hour, alginate control. The procedure: as §1

On to alginic acid, for which, in assay [1], the “inhibition of GAS attachment to PAM2.12 keratinocytes” value is given as “had no effect”.

Turning to hyaluronic acid, the “reduction of GAS attachment to keratinocytes” value in assay [1] (addition of hyaluronic acid delayed for 2 hours) is 70-80%. In addition, in assay [1] (hyaluronic acid added up to 45 minutes after adding GAS), the “reduction in bacterial attachment to keratinocytes” value is given as more than 90%. The “inhibition of GAS attachment to PAM2.12 keratinocytes” value in assay [1] is more than 95%. For the same substance, the “reduction of GAS pharyngeal colonization (positive throat cultures)” value in assay [2] fell in the range of 60 to 80%. In assay [3], the “inhibition of binding of GAS to human keratinocytes” value is on record as “more than 80%”. For the same substance, the “inhibition of binding of GBS to human keratinocytes” value in assay [4] is recorded as “more than 80%”. Also, the “inhibition of binding of S. pneumoniae to human keratinocytes” value in assay [5] is recorded as “more than 80%”. Moreover, the “inhibition of binding of S. aureus to human keratinocytes” value in assay [6] was “more than 80%”.
